We go through 22 compounds from ChEMBL document CHEMBL1811753, “Discovery of potent and selective inhibitors of human platelet-type 12- lipoxygenase” (J Med Chem, 2011).

Usually IC50 stands for the point on the concentration scale where inhibition reaches its midpoint. Usually inhibition stands for the relative decrease from the control value, in per cent.

For experiment [1], the target named is T1, Polyunsaturated fatty acid lipoxygenase ALOX15B (Homo sapiens, UniProt O15296).
T1 sequence (O15296 whole entry): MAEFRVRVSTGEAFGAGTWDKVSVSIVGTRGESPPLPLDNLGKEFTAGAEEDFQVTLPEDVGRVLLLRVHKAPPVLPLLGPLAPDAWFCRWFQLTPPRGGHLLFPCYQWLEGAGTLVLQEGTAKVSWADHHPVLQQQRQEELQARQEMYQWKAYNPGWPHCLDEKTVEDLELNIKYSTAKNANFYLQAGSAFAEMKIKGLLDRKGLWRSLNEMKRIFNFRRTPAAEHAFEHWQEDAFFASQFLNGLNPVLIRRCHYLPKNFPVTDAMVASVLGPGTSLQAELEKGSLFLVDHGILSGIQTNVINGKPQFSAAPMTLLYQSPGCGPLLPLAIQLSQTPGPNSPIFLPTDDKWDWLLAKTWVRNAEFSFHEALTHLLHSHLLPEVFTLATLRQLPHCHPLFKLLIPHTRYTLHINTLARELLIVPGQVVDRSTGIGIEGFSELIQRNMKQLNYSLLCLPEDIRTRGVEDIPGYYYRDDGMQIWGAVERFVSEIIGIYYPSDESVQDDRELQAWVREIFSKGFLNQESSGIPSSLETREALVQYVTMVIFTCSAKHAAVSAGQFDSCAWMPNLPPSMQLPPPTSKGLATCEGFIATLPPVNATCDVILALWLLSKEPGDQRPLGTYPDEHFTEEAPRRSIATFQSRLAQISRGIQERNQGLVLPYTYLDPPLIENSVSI
The experiment is described as follows: Inhibition of human reticulocyte N-terminally His6-tagged 15-lipoxygenase-2 assessed as conjugated diene product formation using arachidonic acid by UV-vis spectrophotometer analysis.

For experiment [2], the target named is T2, Polyunsaturated fatty acid 5-lipoxygenase (Homo sapiens, UniProt P09917).
T2 sequence (P09917 whole entry): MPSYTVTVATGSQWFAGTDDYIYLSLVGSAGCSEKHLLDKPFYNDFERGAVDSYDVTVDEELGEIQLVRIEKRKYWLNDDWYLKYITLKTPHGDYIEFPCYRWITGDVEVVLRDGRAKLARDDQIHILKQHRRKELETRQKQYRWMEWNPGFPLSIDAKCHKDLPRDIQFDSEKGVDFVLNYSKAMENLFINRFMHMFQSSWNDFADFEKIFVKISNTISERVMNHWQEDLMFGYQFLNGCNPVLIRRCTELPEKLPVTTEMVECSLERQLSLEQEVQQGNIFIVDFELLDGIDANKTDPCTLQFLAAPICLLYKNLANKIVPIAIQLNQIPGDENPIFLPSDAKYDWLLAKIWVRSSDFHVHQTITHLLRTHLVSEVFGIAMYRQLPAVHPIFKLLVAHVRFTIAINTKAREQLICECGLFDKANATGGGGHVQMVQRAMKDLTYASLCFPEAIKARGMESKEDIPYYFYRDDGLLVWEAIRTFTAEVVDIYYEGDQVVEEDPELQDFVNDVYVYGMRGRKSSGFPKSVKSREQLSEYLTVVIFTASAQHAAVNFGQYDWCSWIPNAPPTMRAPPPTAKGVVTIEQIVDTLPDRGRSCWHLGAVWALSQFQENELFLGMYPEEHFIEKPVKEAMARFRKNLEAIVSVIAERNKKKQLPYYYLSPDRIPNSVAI
The experiment is described as follows: Inhibition of human 5-lipoxygenase assessed as conjugated diene product formation using arachidonic acid by UV-vis spectrophotometer analysis.

For experiment [3], the species on record is Homo sapiens. Kind of experiment: Selectivity ratio of IC50 for human 5-lipoxygenase to IC50 for human platelet-type N-terminally His6-tagged 12-lipoxygenase.
The species entered for experiment [4] is Homo sapiens. The experiment is described as follows: Selectivity ratio of IC50 for human reticulocyte N-terminally His6-tagged 15-lipoxygenase-1 to IC50 for human platelet-type N-terminally His6-tagged 12-lipoxygenase.
Experiment [5] is filed under the species Homo sapiens. Kind of experiment: Selectivity ratio of IC50 for human reticulocyte N-terminally His6-tagged 15-lipoxygenase-2 to IC50 for human platelet-type N-terminally His6-tagged 12-lipoxygenase.
In experiment [6] the target is T3, Polyunsaturated fatty acid lipoxygenase ALOX15 (Homo sapiens, UniProt P16050).
T3 sequence (P16050 whole entry): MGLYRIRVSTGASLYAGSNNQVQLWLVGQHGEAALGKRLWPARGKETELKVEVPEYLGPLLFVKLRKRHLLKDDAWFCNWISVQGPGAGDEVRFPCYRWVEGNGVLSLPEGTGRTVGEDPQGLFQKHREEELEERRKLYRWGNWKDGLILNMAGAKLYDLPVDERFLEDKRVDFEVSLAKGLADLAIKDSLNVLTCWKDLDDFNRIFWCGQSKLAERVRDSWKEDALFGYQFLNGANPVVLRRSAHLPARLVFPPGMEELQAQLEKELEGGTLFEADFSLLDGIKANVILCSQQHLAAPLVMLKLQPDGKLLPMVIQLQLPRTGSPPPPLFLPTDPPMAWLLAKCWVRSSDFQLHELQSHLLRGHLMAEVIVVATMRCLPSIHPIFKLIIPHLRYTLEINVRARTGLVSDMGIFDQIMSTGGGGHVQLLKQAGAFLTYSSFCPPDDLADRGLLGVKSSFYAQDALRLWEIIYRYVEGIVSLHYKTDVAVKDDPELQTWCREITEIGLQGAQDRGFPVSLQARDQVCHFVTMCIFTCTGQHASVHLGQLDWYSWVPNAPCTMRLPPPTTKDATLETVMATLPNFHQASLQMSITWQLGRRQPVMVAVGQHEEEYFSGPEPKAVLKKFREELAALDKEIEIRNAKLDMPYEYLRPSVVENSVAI
The experiment is described as follows: Inhibition of human reticulocyte N-terminally His6-tagged 15-lipoxygenase-1 assessed as conjugated diene product formation using arachidonic acid by UV-vis spectrophotometer analysis.

The target of experiment [7] is T4, Polyunsaturated fatty acid lipoxygenase ALOX12 (Homo sapiens, UniProt P18054).
T4 sequence (P18054 whole entry): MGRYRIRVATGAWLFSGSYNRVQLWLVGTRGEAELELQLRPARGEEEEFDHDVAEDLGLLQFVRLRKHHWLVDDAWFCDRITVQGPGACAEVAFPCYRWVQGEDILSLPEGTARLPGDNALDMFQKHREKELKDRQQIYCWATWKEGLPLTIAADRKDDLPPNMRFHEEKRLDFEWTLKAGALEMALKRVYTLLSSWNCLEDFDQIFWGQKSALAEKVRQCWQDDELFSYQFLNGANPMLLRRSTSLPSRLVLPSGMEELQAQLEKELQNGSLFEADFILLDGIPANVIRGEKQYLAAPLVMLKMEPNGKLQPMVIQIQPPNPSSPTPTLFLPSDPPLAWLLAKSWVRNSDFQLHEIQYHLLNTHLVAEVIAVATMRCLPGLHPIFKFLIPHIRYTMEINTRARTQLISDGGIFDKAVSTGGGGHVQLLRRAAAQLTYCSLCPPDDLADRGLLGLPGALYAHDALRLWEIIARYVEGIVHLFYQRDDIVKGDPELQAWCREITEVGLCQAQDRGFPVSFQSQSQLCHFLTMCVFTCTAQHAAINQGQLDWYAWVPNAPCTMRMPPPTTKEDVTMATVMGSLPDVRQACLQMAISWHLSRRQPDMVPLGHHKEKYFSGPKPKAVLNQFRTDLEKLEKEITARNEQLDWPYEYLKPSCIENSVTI
Kind of experiment: Inhibition of human platelet-type N-terminally His6-tagged 12-lipoxygenase assessed as conjugated diene product formation using arachidonic acid by UV-vis spectrophotometer analysis.

In experiment [8] the target is T3, Polyunsaturated fatty acid lipoxygenase ALOX15.
Experiment [9] has as its target T4, Polyunsaturated fatty acid lipoxygenase ALOX12. The experiment is described as follows: Inhibition of human platelet-type 12-lipoxygenase.
Experiment [10] has as its system Radical scavenging activity. The experiment is described as follows: Antioxidant activity assessed as DPPH radical scavenging activity at 5 uM. The experiment is classed as functional.
In experiment [11] the target is T5, Polyunsaturated fatty acid lipoxygenase ALOX12 (Homo sapiens) (UniProt P18054).
T5 sequence (whole entry): T4 sequence (P18054 whole entry)
Kind of experiment: Uncompetitive inhibition of human platelet-type N-terminally His6-tagged 12-lipoxygenase assessed as 12-HPETE formation using arachidonic acid by Michaelis-Menten equation analysis.

Experiment [12] deals with T5, Polyunsaturated fatty acid lipoxygenase ALOX12 (Homo sapiens). Kind of experiment: Competitive inhibition of human platelet-type N-terminally His6-tagged 12-lipoxygenase assessed as 12-HPETE formation using arachidonic acid by Michaelis-Menten equation analysis.
In experiment [13] the target is T4, Polyunsaturated fatty acid lipoxygenase ALOX12. The experiment is described as follows: cell-based.
Experiment [14] has as its target T5, Polyunsaturated fatty acid lipoxygenase ALOX12 (Homo sapiens). As to conditions: 10 uM.
Experiment [15] shares this target. As to conditions: 100 uM.
Experiment [16] shares this target. As to conditions: 10 uM. The source holds these as a separate data set.

Calls of active or inactive are those of the source. The rule behind the calls is not given here.

Regarding `CCC(=O)NC(c1ccco1)c1cc(Cl)c2cccnc2c1O` (configuration not stated), the IC50 in experiment [1] was more than 100 µM; in experiment [2], more than 100 µM; in experiment [6], more than 50 µM. Further, the Ratio IC50 in the experiment listed under Homo sapiens [3] was more than 100; in the experiment filed under Homo sapiens [4] it was more than 50; in the experiment listed under Homo sapiens [5] it was more than 100.

On to `CCC(=O)NC(c1ccco1)c1cc(Cl)c2c(c1O)NCCC2` (configuration not stated), for which the IC50 in experiment [7] came out at 3 µM.

`Oc1c(Cl)cc(Cl)c2cccnc12` [CHLOROXINE]: the IC50 in experiment [1] was 28 µM; in experiment [2], 3.6 µM; in [7], 1.9 µM; in [6], 2.4 µM.

On to `CC(=O)NC(c1ccco1)c1cc(Cl)c2ccc(N3CCCCC3)nc2c1O` (configuration not stated), for which the IC50 in experiment [7] was more than 75 µM.

For the compound `CCC(=O)NC(C)c1cc(Cl)c2cccnc2c1O` (configuration not stated), the half-maximal inhibitory concentration (IC50) in experiment [7] is more than 50 µM.

For the compound `CC(C)(c1ccc(O)c(Br)c1)c1cc(Br)c(O)c(Br)c1`, the 50% inhibitory concentration (IC50) turned out to be 7 µM in experiment [8] and 5 µM in [9].

As to `CCC(=O)NC(c1ccc(Br)o1)c1cc(Cl)c2cccnc2c1O` (configuration not stated), the 50% inhibitory concentration (IC50) in experiment [7] was more than 75 µM.

Turning to `CCC(=O)NC(c1ccc(F)cc1)c1cc(Cl)c2cccnc2c1O` (configuration not stated), in experiment [7], the IC50 is more than 50 µM.

`CC(Cc1ccc(O)c(O)c1)C(C)Cc1ccc(O)c(O)c1` (configuration not stated): the result in experiment [10] was Active.

In the case of `CC(=O)NC(c1cccs1)c1cc(Cl)c2cccnc2c1O` (configuration not stated), the values for the IC50 in [2] and in [6] were more than 100 µM and more than 25 µM, respectively. Moreover, the Kiuc in [11] is 0.8 µM. The Ratio IC50 is more than 100 in the experiment listed under Homo sapiens [3] and 25 in the experiment filed under Homo sapiens [4]. Also, in experiment [12], the Kic amounted to 0.7 µM.

For `Cc1ccc(C(=O)NC(c2ccco2)c2cc(Cl)c3cccnc3c2O)cc1` (configuration not stated), the IC50 in [7] was more than 25 µM.

Consider `CC(=O)NC(c1ccco1)c1cc(Cl)c2ccccc2c1O` (configuration not stated), for which, in [7], the half-inhibitory concentration (IC50) was more than 75 µM.

Consider `O=C(NC(c1ccco1)c1cc(Cl)c2cccnc2c1O)c1ccccc1` (configuration not stated), for which the IC50 in experiment [7] was more than 25 µM.

On to `Oc1c(Br)c(Br)c(Br)c(Br)c1Oc1ccc(Br)cc1Br`, for which the 50% inhibitory concentration (IC50) in [8] was 0.7 µM; in [9] it was 1.8 µM.

On to `CC(=O)NC(c1ccco1)c1cc(Cl)c2ccc(Cl)nc2c1O` (configuration not stated), for which the IC50 in experiment [7] was more than 75 µM.

For the compound `CCC(=O)NC(c1cccs1)c1cc([N+](=O)[O-])c2cccnc2c1O` (configuration not stated), the figures for the IC50 in experiment [13] and in experiment [6] were 15 µM and more than 25 µM, respectively. For the same compound, the inhibition in [14] is 70%; in [16], 68.9%. Moreover, the inhibition entry in experiment [15] was “Active”. In experiment [10], the result was inactive.

Regarding `CC(=O)NC(C)c1cc(F)c2cccnc2c1O` (configuration not stated), the IC50 in experiment [7] was more than 75 µM.

With `CCC(=O)NC(c1cccs1)c1ccc2cccnc2c1O` (configuration not stated), the IC50 is more than 100 µM in experiment [1], more than 100 µM in [2] and more than 50 µM in [6]. For the same compound, the figures for the Ratio IC50 in the experiment listed under Homo sapiens [3], in the experiment filed under Homo sapiens [4] and in the experiment listed under Homo sapiens [5] were more than 29, more than 15 and more than 29, respectively.

With `CC(=O)NC(c1ccco1)c1cc(Cl)c2ccc(N(C)C)nc2c1O` (configuration not stated), the IC50 in [7] is more than 75 µM.

Regarding `CC(=O)NCc1cc(Cl)c2cccnc2c1O`, the IC50 in experiment [7] was more than 150 µM.

On to `CCC(=O)NC(c1ccco1)c1cc(Cl)c2cccnc2c1OC` (configuration not stated), for which, in [7], the IC50 is more than 75 µM.

In the case of `CC(=O)NC(C)c1cc(Cl)c2cccnc2c1O` (configuration not stated), the IC50 in experiment [7] was more than 150 µM.
